Test results published in EP1655287A1, “PROBE FOR DISEASES WITH AMYLOID ACCUMULATION, AMYLOID-STAINING AGENT, REMEDY AND PREVENTIVE FOR DISEASES WITH AMYLOID ACCUMULATION AND DIAGNOSTIC PROBE AND STAINING AGENT FOR NEUROFIBRILLARY CHANGE” (priority 2003, dated 2005).
Where two headings read alike, the source gives them in different places.

Tests used:
[1] = system: Amyloid β-protein; assay: Screening of the degree of β-structure recognition (fluorescence, in the presence of Congo red); type: binding; conditions: test compound 5 µM, amyloid β-protein 5 µM, Congo red 0.1 µM, phosphate buffer pH 7.4
[2] = biological target: T1, senile plaques (Homo sapiens, UniProt P05067); assay: Staining of senile plaques and diffuse plaques in brain sections, compared with thioflavin S, BSB or anti-Aβ antibody 6F/3D immunostaining; type: binding, patient with Alzheimer's disease; conditions: 100 µM compound in 50% ethanol; for staining properties in sections of the brain of a patient with Alzheimer's disease: compared with thioflavin S (and BSB) on adjacent sections; for staining properties compared with immunostaining of anti-Aβ antibody 6F/3D: adjacent sections immunostained with 6F/3D
T1 construct: The former has, as the main component, amyloid β-protein (Aβ protein) taking β-sheet structures; from tissue; host or cells: paraffin-embedded temporal lobe or hippocampus sections of an Alzheimer's disease patient's brain (Fukushimura Hospital)
T1 sequence (P05067 672-713 limits assumed): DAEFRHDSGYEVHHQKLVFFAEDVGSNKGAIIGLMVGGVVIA
Description: The following explanation is made about testing of staining properties of the compounds of the present invention on brain sections of an Alzheimer's disease patient. • (1) Temporal lobe or hippocampus specimens of the brain of a patient who had been definitely diagnosed pathologically as Alzheimer's disease and of a normal aged individual were used. These specimens were provided from Fukushimura Hospital, our joint research facility, with the consent to their use for research purpose received from the bereaved family of the patient (BF Research Laboratories Institutional Ethics Board Permission No. RS-99-02). • (2) The brain tissues embedded in paraffin were sliced 6 or 8 µm thick, extended on slides, and dried. The paraffin-embedded brain sections were deparaffined by washing sequentially with xylene (10 minutes, twice), 100% ethanol (15 minutes, twice), 95% ethanol (15 minutes, twice), and a stream of water (10 minutes). • (3) Pre-treatment for staining with compounds of the present invention involved treating the sections for eliminating self-fluorescence due to lipofuscin. First, the deparaffined sections were immersed into a 10% formalin solution for 60 minutes and washed with PBS for 5 minutes, followed by immersion into a 0.25% solution of KMnO4 for 90 minutes. After washing twice with PBS for 2 minutes each, the sections were immersed into a solution of 0.1% K2S2O5/oxalic acid for about 30 seconds each, and then washed three times with PBS for 2 minutes each. • (4) About 150 µl of a 100 µM solution of a compound of the present invention dissolved in 50% ethanol was added dropwise onto the sections and allowed the reaction to be carried out for 10 minutes. The sections were dipped into tap water five times, and then 50% ethanol three to five times, followed by immediate classification. After that, the sections were immersed into PBS for 60 minutes, enclosed with Fluor Save Reagent (Calbiochem), and examined under a fluorescent microscope (Nikon, Eclips E800). Pictures were taken using a digital camera (Plaroid PDMCII).
Immunostaining was carried out as follows. • (a) Procedures for immunostaining amyloid β-protein: • (1) After the sections were deparaffined, the sections were washed twice in distilled water for 2 minutes each, and tissues were marked with an Immunopen. About 150 µl of formic acid was added dropwise and allowed to stand at room temperature for 5 minutes. The sections were washed with tap water for 5 minutes and immersed into cold PBS-Tween 20 for 2 minutes, and then about 150 µl of a 0.05% trypsin solution was added dropwise and allowed the reaction to be carried out at 37°C for 15 minutes. • (2) In an ice bath, the sections were washed twice with cold PBS-Tween 20 for 5 minutes each, and two drops of blocking serum were added and allowed the reaction to be carried out at 37°C for 15 minutes. Excess water was removed, and about 150 µl of 6F/3D, an antibody specific to amyloid β-protein (DAKO; diluted 1:50) was added dropwise and allowed the reaction to be carried out at 37°C for 1 hour. • (3) Further, after washing five times with cold PBS-Tween 20 for 2 minutes each, two drops of a solution of goat antimouse IgG (H+L) conjugated to biotin were added and allowed the reaction to be carried out at 37°C for 1 hour. After that, the sections were washed three times with cold PBS-Tween 20 for 2 minutes each, and two drops of ABS solution (a streptavidin-biotin-peroxidase complex solution) were added and allowed to stand for 30 minutes. The sections were again washed three times with cold PBS-Tween 20 for 2 minutes each, and about 150 µl of DAB solution (prepared by dissolving 10 mg of DAB in 20 ml of 0.05 mol/l Tris-HCl buffer and adding 100 µl of 3% hydrogen peroxide immediately before use) were added and allowed the color to be developed sufficiently. Then, the sections were washed with distilled water for 1 minute to stop the reaction, enclosed, and examined under a microscope.

[3] = Acute toxicity testing, intravenous administration; type: in vivo; conditions: male Crj:CD1 mice, via tail vein, observed up to 7 days; for MTD at 168 h: mouse, in vivo, iv, read-out: Maximum Tolerated Dose (mg/kg, intravenous administration)
Description: The following explanation is made of testing methods for properties of the compounds of the present invention. (A) Testing of acute toxicity Acute toxicity of the inventive compounds was determined employing mice by intravenous administration. Male Crj:CD1 mice were used and divided into groups of 4 mice, with an average weight of each group of 31-32 g. […] Up to 7 days after administration, observations were made.

[4] = mouse, in vivo, iv, 2 min
Description: (§1) (B) Testing of blood-brain barrier permeability Measurements of blood-brain barrier permeability were made according to the following procedures. Compounds of the present invention were intravenously administered to mice to determine their in vivo blood-brain barrier permeability. • (1) Mice utilized Slc:ICR weighing 30-40 g (7 weeks old, n=3) (Nippon SLC). • (2) A test compound was dissolved in a mixture of 1N HCl, polyethylene glycol 400, and DMSO, or in DMSO or ethyl alcohol, and then diluted with purified water, and injected via tail vein. Two minutes after administration, the mice, under ether anesthesia, were subjected to taking blood from the abdominal aorta with a heparin-treated syringe and removing the brain. • (3) After taking blood, blood samples were centrifuged at 14,000 rpm at 4°C for 10 minutes, and their supernatants were kept at -80°C as plasma sample. The brain (including cerebellum) was kept at -80°C after its removal. • (4) The plasma sample, when used, was thawed, diluted with purified water, and then applied to a conditioned C18 solid-phase extraction cartridge (bond elute C18, 200 mg, Varian), followed by elution with methyl alcohol. Alternatively, after thawing the plasma sample, a diethyl ether/cyclohexane mixture was added, and the mixture was shaken, and then centrifuged to separate an oil layer. • (5) The brain material, when used, was subjected to measuring its wet weight with the brain remaining frozen, and saline was added to the brain for homogenization. The homogenate was centrifuged for 10 minutes, and the supernatant was applied to a conditioned C18 solid-phase extraction cartridge and eluted with methyl alcohol. Alternatively, after measuring the wet weight of the frozen brain, a diethyl ether/cyclohexane mixture was added to the brain, and the mixture was homogenized, shaken, and then centrifuged to separate an oil layer. • (6) The absorbance and fluorescence were detected employing high performance liquid chromatography. • (7) For each of the plasma and brain, the content of the test compound in the plasma or brain (%ID (injected dose)/ml or g) was determined, relative to the administered dose.

[5] = Blood-brain barrier permeability after intravenous administration; conditions: for Plasma: mice, content in plasma two minutes after intravenous administration; for tissue uptake at 2 min: mouse, brain, iv
Description: as §1

| Molecule | Degree of β-structure recognition (%) [1] [%] | staining properties in sections of the brain of a patient with Alzheimer's disease [2] | Maximum Tolerated Dose (mg/kg, intravenous administration) [3] | Brain [4] | Plasma [4] | staining properties compared with immunostaining of anti-Aβ antibody 6F/3D [2] | MTD at 168 h [3] [mg/kg] | Plasma [5] | tissue uptake at 2 min [5] [%ID/g] |
| --- | --- | --- | --- | --- | --- | --- | --- | --- | --- |
| 2-[2-(5-dimethylaminothiazol-2-yl)ethenyl]benzoxazole [BF-215] | 82.6 | stains senile plaques | ≧ 10 mg/kg | 8.8 %ID/g or ml | 2.5 %ID/g or ml | – | – | – | – |
| CN(C)c1ncc(/C=C/c2nc3ccccc3o2)s1 [BF-197, 2-[2-(2-dimethylaminothiazol-5-yl)ethenyl]benzoxazole] | 71.8 | mainly stains senile plaques | – | – | – | stains senile plaques | ≥ 10 | 1.9 %ID/g or ml | 15 |
| Cc1nc(/C=C/c2cnc(N(C)C)s2)oc1C [BF-214, 2-(dimethylamino)-5-[2-(4,5-dimethyloxazol-2-yl)ethenyl]thiazole] | 58.9 | stains senile plaques | – | – | – | – | ≥ 10 | 2.1 %ID/g or ml | 8.8 |
| CN(C)c1ncc(/C=C/c2nc3ccc(OCCF)cc3o2)s1 [BF-227, 2-[2-(2-dimethylaminothiazol-5-yl)ethenyl]-6-(2-fluoroethyloxy)benzoxazole] | 70.2 | mainly stains senile plaques | – | – | – | stains senile plaques (Fig. 16, wedge-shaped arrowheads) and diffuse plaques | ≥ 10 | 2.1 %ID/g or ml | 7.9 |
